Experiments:
Assay type in all cases: in vivo
[1] = system: Carpocapsa (Cydia) Pomonella (Codling Moth); assay: Activity against Carpocapsa (Cydia) pomonella (codling moth), larvicide, feeding/contact; conditions: 336 h, application rate of 12.5 ppm, L1 larvae, 14 days after infestation, read-out: effect in at least one of the two categories (mortality or growth inhibition)
Protocol: Diet cubes coated with paraffin were sprayed with diluted test solutions in an application chamber. After drying off the treated cubes (10 replicates) were infested with 1 L1 larvae. Samples were incubated at 26-27° C. and checked 14 days after infestation for mortality and growth inhibition. The following compounds gave an effect of at least 80% in at least one of the two categories (mortality or growth inhibition) at an application rate of 12.5 ppm: P1, P2, P3, P5, P9, P10, P11, P12, P14, P17, P19, P20, P21, P23, P24, P30, P31.

[2] = system: Plutella xylostella (Diamond Back Moth); assay: Activity against Plutella xylostella (diamond back moth), artificial diet; conditions: 192 h, application rate of 200 ppm, eggs, 8 days after infestation, read-out: effect in at least one of the two categories (mortality or growth inhibition)
Protocol: 24-well microtiter plates with artificial diet were treated with aqueous test solutions prepared from 10′000 ppm DMSO stock solutions by pipetting. After drying, Plutella eggs were pipetted through a plastic stencil onto a gel blotting paper and the plate was closed with it. The samples were assessed for mortality and growth inhibition in comparison to untreated samples 8 days after infestation.

[3] = system: Nilaparvata lugens (Brown Plant Hopper); assay: Activity against Nilaparvata lugens (brown plant hopper), larvicide, systemic into water; conditions: 168 h, application rate of 12.5 ppm, N3 nymphs, 7 days after infestation
Protocol: Larvicide, systemic into water Rice plants cultivated in a nutritive solution were treated with the diluted test solutions into nourishing cultivation system. 1 day after application plants were infested with ˜20 N3 nymphs. 7 days after infestation samples were assessed for mortality and growth regulation.

[4] = system: Chilo suppressalis (Striped Rice Stemborer); assay: Activity against Chilo suppressalis (striped rice stemborer), artificial diet; conditions: 144 h, application rate of 200 ppm, L2 larvae, 6 days after infestation, read-out: control (mortality, anti-feeding effect, growth inhibition)
Protocol: 24-well microtiter plates with artificial diet were treated with aqueous test solutions prepared from 10′000 ppm DMSO stock solutions by pipetting. After drying, the plates were infested with L2 larvae (6-8 per well). The samples were assessed for mortality, anti-feeding effect, and growth inhibition in comparison to untreated samples 6 days after infestation. Control of Chilo suppressalis by a test sample is given when at least one of the categories mortality, anti-feedant effect, and growth inhibition is higher than the untreated sample.

[5] = system: Spodoptera littoralis (Egyptian Cotton Leaf Worm); assay: Activity against Spodoptera littoralis (Egyptian cotton leaf worm), cotton leaf discs sprayed; conditions: foliar, 72 h, application rate of 200 ppm, L1 larvae, 3 days after infestation, read-out: control (mortality, anti-feeding effect, growth inhibition)
Protocol: Cotton leaf discs were placed onto agar in 24-well microtiter plates and sprayed with aqueous test solutions prepared from 10′000 ppm DMSO stock solutions. After drying the leaf discs were infested with five L1 larvae. The samples were assessed for mortality, anti-feeding effect, and growth inhibition in comparison to untreated samples 3 days after infestation. Control of Spodoptera littoralis by a test sample is given when at least one of the categories mortality, anti-feedant effect, and growth inhibition is higher than the untreated sample.

[6] = system: Diabrotica Balteata (Corn Root Worm); assay: Activity against Diabrotica balteata (corn root worm), maize sprouts sprayed; conditions: 96 h, application rate of 200 ppm, L2 larvae, 4 days after infestation, read-out: effect in at least one of the two categories (mortality or growth inhibition)
Protocol: Maize sprouts placed onto an agar layer in 24-well microtiter plates were treated with aqueous test solutions prepared from 10′000 ppm DMSO stock solutions by spraying. After drying, the plates were infested with L2 larvae (6 to 10 per well). The samples were assessed for mortality and growth inhibition in comparison to untreated samples 4 days after infestation.

[7] = system: Myzus persicae (Green Peach Aphid); assay: Activity against Myzus persicae (green peach aphid), feeding/contact activity; conditions: 144 h, application rate of 200 ppm, mixed ages, 6 days after infestation
Protocol: Sunflower leaf discs were placed onto agar in a 24-well microtiter plate and sprayed with aqueous test solutions prepared from 10′000 ppm DMSO stock solutions. After drying, the leaf discs were infested with an aphid population of mixed ages. The samples were assessed for mortality 6 days after infestation.

[8] = system: Myzus persicae (Green Peach Aphid); assay: Activity against Myzus persicae (green peach aphid), systemic activity; conditions: 144 h, test rate of 24 ppm, pea seedling roots in test solution, 6 days
Protocol: Roots of pea seedlings infested with an aphid population of mixed ages were placed directly into aqueous test solutions prepared from 10′000 DMSO stock solutions. The samples were assessed for mortality 6 days after placing seedlings into test solutions.

[9] = system: Euschistus heros (Neotropical Brown Stink Bug); assay: Activity against Euschistus heros (neotropical brown stink bug), soybean leaves sprayed; conditions: 120 h, application rate of 200 ppm, N2 nymphs, 5 days after infestation, read-out: effect in at least one of the two categories (mortality or growth inhibition)
Protocol: Soybean leaves on agar in 24-well microtiter plates were sprayed with aqueous test solutions prepared from 10′000 ppm DMSO stock solutions. After drying the leaves were infested with N2 nymphs. The samples were assessed for mortality and growth inhibition in comparison to untreated samples 5 days after infestation.

CCS(=O)(=O)c1cc(C(F)(F)F)cnc1-c1cc2c(cn1)N(CC(F)(F)C(F)(F)F)C(=O)OC2 [P10, 6-[3-ethylsulfonyl-5-(trifluoromethyl)-2-pyridyl]-1-(2,2,3,3,3-pentafluoropropyl)-4H-pyrido[3,4-d][1,3]oxazin-2-one]
≥ 80%: percent effect (mortality or growth inhibition) at 12.5 ppm [1] | percent effect (mortality or growth inhibition) at 200 ppm [2] | mortality at 12.5 ppm [3] | mortality at 200 ppm [4] | mortality at 200 ppm [5] | percent effect (mortality or growth inhibition) at 200 ppm [6] | mortality at 200 ppm [7]

CCS(=O)(=O)c1cc(C2(C#N)CC2)cnc1-c1cc2c(cn1)N(CC(F)(F)F)C(=O)OC2 [P34, 1-[5-ethylsulfonyl-6-[2-oxo-1-(2,2,2-trifluoroethyl)-4H-pyrido[3,4-d][1,3]oxazin-6-yl]-3-pyridyl]cyclopropanecarbonitrile]
≥ 80%: percent effect (mortality or growth inhibition) at 200 ppm [2] | mortality at 24 ppm [8] | percent effect (mortality or growth inhibition) at 200 ppm [6] | mortality at 200 ppm [7]

CCS(=O)(=O)c1cc(N(C)C(C)=O)cnc1-c1cc2c(cn1)N(CC(F)(F)C(F)(F)F)C(=O)CC2 [P8, N-[5-ethylsulfonyl-6-[2-oxo-1-(2,2,3,3,3-pentafluoropropyl)-3,4-dihydro-1,7-naphthyridin-6-yl]-3-pyridyl]-N-methyl-acetamide]
≥ 80%: percent effect (mortality or growth inhibition) at 200 ppm [2] | mortality at 24 ppm [8] | mortality at 200 ppm [4] | mortality at 200 ppm [5] | percent effect (mortality or growth inhibition) at 200 ppm [9] | mortality at 200 ppm [7]

CCS(=O)(=O)c1cc(C(C)(C)C#N)cnc1-c1cc2c(cn1)N(CC(F)(F)C(F)(F)F)C(=O)OC2 [P15, 2-[5-ethylsulfonyl-6-[2-oxo-1-(2,2,3,3,3-pentafluoropropyl)-4H-pyrido[3,4-d][1,3]oxazin-6-yl]-3-pyridyl]-2-methyl-propanenitrile]
≥ 80%: percent effect (mortality or growth inhibition) at 200 ppm [2] | mortality at 24 ppm [8] | mortality at 200 ppm [4] | mortality at 200 ppm [5] | percent effect (mortality or growth inhibition) at 200 ppm [9] | percent effect (mortality or growth inhibition) at 200 ppm [6] | mortality at 200 ppm [7]

CCS(=O)(=O)c1cc(OC(C)(C)C#N)cnc1-c1cc2c(cn1)N(CC(F)(F)C(F)(F)F)C(=O)CC2 [P20, 2-[[5-ethylsulfonyl-6-[2-oxo-1-(2,2,3,3,3-pentafluoropropyl)-3,4-dihydro-1,7-naphthyridin-6-yl]-3-pyridyl]oxy]-2-methyl-propanenitrile]
≥ 80%: percent effect (mortality or growth inhibition) at 12.5 ppm [1] | percent effect (mortality or growth inhibition) at 200 ppm [2] | mortality at 12.5 ppm [3] | mortality at 200 ppm [4] | mortality at 200 ppm [5] | percent effect (mortality or growth inhibition) at 200 ppm [9] | percent effect (mortality or growth inhibition) at 200 ppm [6] | mortality at 200 ppm [7]

CCS(=O)(=O)c1ccc(-c2ncccn2)nc1-c1cc2c(cn1)N(CC(F)(F)C(F)(F)F)C(=O)CC2 [P22, 6-(3-ethylsulfonyl-6-pyrimidin-2-yl-2-pyridyl)-1-(2,2,3,3,3-pentafluoropropyl)-3,4-dihydro-1,7-naphthyridin-2-one]
≥ 80%: percent effect (mortality or growth inhibition) at 200 ppm [2] | mortality at 24 ppm [8] | mortality at 200 ppm [4] | mortality at 200 ppm [5] | percent effect (mortality or growth inhibition) at 200 ppm [9] | percent effect (mortality or growth inhibition) at 200 ppm [6] | mortality at 200 ppm [7]

CCS(=O)(=O)c1cc(OCC(C)(F)F)cnc1-c1cc2c(cn1)N(CC(F)(F)C(F)(F)F)C(=O)CC2 [P24, 6-[5-(2,2-difluoropropoxy)-3-ethylsulfonyl-2-pyridyl]-1-(2,2,3,3,3-pentafluoropropyl)-3,4-dihydro-1,7-naphthyridin-2-one]
≥ 80%: percent effect (mortality or growth inhibition) at 12.5 ppm [1] | percent effect (mortality or growth inhibition) at 200 ppm [2] | mortality at 12.5 ppm [3] | mortality at 200 ppm [4] | mortality at 200 ppm [5] | percent effect (mortality or growth inhibition) at 200 ppm [9] | percent effect (mortality or growth inhibition) at 200 ppm [6] | mortality at 200 ppm [7]

CCS(=O)(=O)c1cc(C(F)(F)F)cnc1-c1cc2c(cn1)N(CC(F)(F)C(F)(F)F)C(=O)CC2 [P9, 6-[3-ethylsulfonyl-5-(trifluoromethyl)-2-pyridyl]-1-(2,2,3,3,3-pentafluoropropyl)-3,4-dihydro-1,7-naphthyridin-2-one]
≥ 80%: percent effect (mortality or growth inhibition) at 12.5 ppm [1] | percent effect (mortality or growth inhibition) at 200 ppm [2] | mortality at 12.5 ppm [3] | mortality at 200 ppm [4] | mortality at 200 ppm [5] | percent effect (mortality or growth inhibition) at 200 ppm [6] | mortality at 200 ppm [7]

CCS(=O)(=O)c1ccc(C2CC2)nc1-c1cc2c(cn1)N(CC(F)(F)C(F)(F)F)C(=O)CC2 [P14, 6-(6-cyclopropyl-3-ethylsulfonyl-2-pyridyl)-1-(2,2,3,3,3-pentafluoropropyl)-3,4-dihydro-1,7-naphthyridin-2-one]
≥ 80%: percent effect (mortality or growth inhibition) at 12.5 ppm [1] | percent effect (mortality or growth inhibition) at 200 ppm [2] | mortality at 12.5 ppm [3] | mortality at 200 ppm [4] | mortality at 200 ppm [5] | percent effect (mortality or growth inhibition) at 200 ppm [6] | mortality at 200 ppm [7]

CCS(=O)(=O)c1cc(C(C)(C)F)cnc1-c1cc2c(cn1)N(CC(F)(F)C(F)(F)F)C(=O)OC2 [P30, 6-[3-ethylsulfonyl-5-(1-fluoro-1-methyl-ethyl)-2-pyridyl]-1-(2,2,3,3,3-pentafluoropropyl)-4H-pyrido[3,4-d][1,3]oxazin-2-one]
≥ 80%: percent effect (mortality or growth inhibition) at 12.5 ppm [1] | percent effect (mortality or growth inhibition) at 200 ppm [2] | mortality at 12.5 ppm [3] | mortality at 200 ppm [4] | mortality at 200 ppm [5] | percent effect (mortality or growth inhibition) at 200 ppm [6]

CCS(=O)(=O)c1ccc(C2CC2)nc1-c1cc2c(cn1)N(CC(F)(F)C(F)(F)F)C(=O)OC2 [P17, 6-(6-cyclopropyl-3-ethylsulfonyl-2-pyridyl)-1-(2,2,3,3,3-pentafluoropropyl)-4H-pyrido[3,4-d][1,3]oxazin-2-one]
≥ 80%: percent effect (mortality or growth inhibition) at 12.5 ppm [1] | percent effect (mortality or growth inhibition) at 200 ppm [2] | mortality at 12.5 ppm [3] | mortality at 200 ppm [4] | mortality at 200 ppm [5] | percent effect (mortality or growth inhibition) at 200 ppm [6] | mortality at 200 ppm [7]

CCS(=O)(=O)c1cc(N(C)C(C)=O)cnc1-c1cc2c(cn1)N(CC(F)(F)C(F)(F)F)C(=O)OC2 [P18, N-[5-ethylsulfonyl-6-[2-oxo-1-(2,2,3,3,3-pentafluoropropyl)-4H-pyrido[3,4-d][1,3]oxazin-6-yl]-3-pyridyl]-N-methyl-acetamide]
≥ 80%: percent effect (mortality or growth inhibition) at 200 ppm [2] | mortality at 24 ppm [8] | mortality at 200 ppm [4] | mortality at 200 ppm [5] | mortality at 200 ppm [7]

Reference: patent US20240122182A1, “PESTICIDALLY ACTIVE HETEROCYCLIC DERIVATIVES WITH SULFUR CONTAINING SUBSTITUENTS” (SYNGENTA CROP PROTECTION AG, priority 2021, published 2024)
